ChEMBL document CHEMBL3351437, “Ralfuranone Is Produced by an Alternative Aryl-Substituted γ-Lactone Biosynthetic Route in Ralstonia solanacearum” (2014)
Values after ≈ are worked out from the molar mass of the structure shown. Active and inactive are the calls of the source. No cut-off for these calls is given here.

Columns and labels:
Penicillium chrysogenum [1] = test: Antimicrobial activity against Penicillium notatum assessed as inhibition of conidia germination after 18 hrs by microdilution method; format: functional
Bacillus subtilis [2] = test: Antimicrobial activity against Bacillus subtilis after 18 hrs by microdilution method; format: functional
Staphylococcus aureus [3] = test: Antimicrobial activity against Staphylococcus aureus after 18 hrs by microdilution method; format: functional
Staphylococcus aureus [4] = test: Antimicrobial activity against methicillin-resistant Staphylococcus aureus after 18 hrs by microdilution method; format: functional
Mycolicibacterium vaccae [5] = test: Antimicrobial activity against Mycobacterium vaccae after 18 hrs by microdilution method; format: functional
Enterococcus faecalis [6] = test: Antimicrobial activity against vancomycin-resistant Enterococcus faecalis after 18 hrs by microdilution method; format: functional
Bacillus subtilis [7] = test: Antimicrobial activity against Bacillus subtilis at 342 uM after 18 hrs by microdilution method; format: functional, organism-based
Staphylococcus aureus [8] = test: Antimicrobial activity against Staphylococcus aureus at 342 uM after 18 hrs by microdilution method; format: functional, organism-based
Staphylococcus aureus [9] = test: Antimicrobial activity against methicillin-resistant Staphylococcus aureus at 342 uM after 18 hrs by microdilution method; format: functional, organism-based
Mycolicibacterium vaccae [10] = test: Antimicrobial activity against Mycobacterium vaccae at 342 uM after 18 hrs by microdilution method; format: functional, organism-based
Enterococcus faecalis [11] = test: Antimicrobial activity against vancomycin-resistant Enterococcus faecalis at 342 uM after 18 hrs by microdilution method; format: functional, organism-based
Penicillium chrysogenum [12] = test: Antimicrobial activity against Penicillium notatum assessed as inhibition of conidia germination at 342 uM after 18 hrs by microdilution method; format: functional, organism-based

**Q.** With `C[C@@H]1[C@H](O)[C@@H](C)/C=C/C=C/C=C/C=C/C=C/C=C/C=C/[C@H](O[C@@H]2O[C@H](C)[C@@H](O)[C@H](N)[C@@H]2O)C[C@@H]2O[C@](O)(C[C@@H](O)C[C@@H](O)[C@H](O)CC[C@@H](O)C[C@@H](O)CC(=O)O[C@H]1C)C[C@H](O)[C@H]2C(=O)O` [AMPHOTERICIN B] as the compound, how does the MIC (Penicillium chrysogenum [1]) read?
**A.** Its MIC is 0.4 µg/mL.

**Q.** Which MIC (Bacillus subtilis [2]) does the source give for `O=C(O)C1=C(c2ccccc2)/C(=C/c2ccccc2)C(=O)O1` here?
**A.** Its MIC is 5.3 µM.

**Q.** And the MIC (Staphylococcus aureus [3])?
**A.** The MIC was 5.3 µM (≈ 1.55 µg/mL).

**Q.** And the MIC (Staphylococcus aureus [4])?
**A.** The MIC was 5.3 µM (≈ 1.55 µg/mL).

**Q.** And the MIC (Mycolicibacterium vaccae [5])?
**A.** Its MIC is 10.6 µM.

**Q.** And the MIC (Enterococcus faecalis [6])?
**A.** Its MIC is 21.2 µM.

**Q.** What about the MIC (Penicillium chrysogenum [1]) of the same compound?
**A.** The MIC was 42.4 µM.

**Q.** `O=C(O)c1cn(C2CC2)c2cc(N3CCNCC3)c(F)cc2c1=O` [CIPROFLOXACIN] was tested. Which MIC (Bacillus subtilis [2]) did it give?
**A.** The MIC was less than 0.05 µg/mL.

**Q.** And the MIC (Mycolicibacterium vaccae [5])?
**A.** The MIC was 0.2 µg/mL.

**Q.** And the MIC (Enterococcus faecalis [6])?
**A.** The MIC was 1.56 µg/mL.

**Q.** Which Activity (Bacillus subtilis [7]) does the source give for `O=C1OCC(c2ccccc2)=C1C(O)c1ccccc1` (stereo unspecified) here?
**A.** Its Activity is “inactive”.

**Q.** What about the Activity (Staphylococcus aureus [8]) of the same compound?
**A.** The Activity was “inactive”.

**Q.** What about the Activity (Staphylococcus aureus [9]) of the same compound?
**A.** Its Activity is “inactive”.

**Q.** And the Activity (Mycolicibacterium vaccae [10])?
**A.** Its Activity is “inactive”.

**Q.** And the Activity (Enterococcus faecalis [11])?
**A.** Its Activity is “inactive”.

**Q.** And the Activity (Penicillium chrysogenum [12])?
**A.** The Activity was “inactive”.
